Results from US20240124381A1, “Renewable Bio-advantaged plasticizer generated by reductive coupling of lignin-derived aromatics” (Alliance for Sustainable Energy, LLC, priority 2022, published 2024).

Key:
[1] = Thermostability of plasticized PVC by thermogravimetric analysis (TGA); format: physicochemical; settings: PVC composite with 10 wt % plasticizer; PVC itself 272 ° C.; higher preferred
Text: (§1) FIG. 5 provides thermal analysis of lignin-derived biaryl plasticizers. From left to right: unplasticized PVC, 10 wt % plasticized PVC with DEHP, and 10 wt % plasticized PVC with lignin-derived biaryl plasticizers.
(§2) Plasticizer properties of lignin-derived biaryls. The above results provide access to all possible homo- and cross-coupled BPDA derivatives of H, G, and S. These structures provide the basis for testing of these materials as plasticizers for PVC and comparison of their performance relative to the existing petroleum-derived incumbent, di(2-ethylhexyl)phthalate (DEHP). Each of the BPDA methyl esters was subjected to Ti(OBu)4-promoted transesterification with 2-ethylhexanol to afford the corresponding DEH-BPDA derivatives, designated H—H^PL, H-G^PL, H—S^PL, G-G^PL, G-S^PL, and S—S^PL. The thermal properties of these structures were characterized by thermogravimetric analysis (TGA) and differential scanning calorimetry (DSC). DEHP and the DEH-BPDA derivatives were then individually integrated with PVC at 10 wt %, and the composites were analyzed by TGA and DSC to identify their glass transition temperature (Tg) and the temperature at which the polymer degrades with 10% or 50% loss of its original weight (Td10, Td50). The former value reflects the ability of the plasticizer to soften PVC, while the latter values reflect the thermostability of the composite material. […]

[2] = Glass transition temperature of plasticized PVC by differential scanning calorimetry (DSC); format: physicochemical; settings: PVC composite with 10 wt % plasticizer; unplasticized PVC 83.0 ° C.; lower preferred
Text: as §1, §2

## CCCCC(CC)COC(=O)c1ccccc1C(=O)OCC(CC)CCCC (centres unmarked) [DEHP, di(2-ethylhexyl)phthalate]
[1]
  Td10 (temperature at which the polymer degrades with 10% loss of its original weight): 253 °C
[2]
  glass transition temperature (Tg): 52.1 °C
